Test results taken from US11608332B2, “FGFR4 inhibitor and preparation method and use thereof” (Jiangsu Hansoh Pharmaceutical Group Co., Ltd., priority 2016, dated 2023).

Columns and labels:
SK-HEP-1 cells = assay: Inhibition of SK-HEP-1 cell proliferation (CellTiter-Glo); assay type: cell-based; conditions: Homo sapiens, SK-HEP1, 72 hours
Protocol: 5. Experiment on the Inhibition of SK-HEP-1 Cell Proliferation
In this experiment, the inhibitory effect of the compounds on SK-HEP-1 cell proliferation was tested by a CellTiter-Glo method, and the half maximal inhibitory concentration (IC50) of the compounds on the activity of cell proliferation was determined.
1) A 96-well cell culture plate was seeded with 50˜100 μL of SK-HEP-1 cell suspension at a density of 1-5×10^4 cells/ml. The culture plate was incubated in an incubator for 16˜24 hours (37° C., 5% CO2).
(§1) 2) Different concentrations of the test compound in a gradient dilution were added to the cells in the culture plate. The culture plate was incubated in an incubator for 72 hours (37° C., 5% CO2).
(§2) 3) 50˜100 μL of CellTiter-Glo reagent were added to each well. Then, the culture plate was shaken or left to stand for 5˜30 minutes at room temperature.
(§3) 4) The chemiluminescence signal values of each plate were determined by a microplate reader.
(§4) 5) The inhibition rates were calculated according to the chemiluminescence signal values.
The IC50 of the compound was obtained by curve fitting according to the inhibition rates at different concentrations, and the cell activity of the specific Example compounds is shown in Table 2.

Hep 3B cells = assay: Inhibition of Hep 3B cell proliferation (CellTiter-Glo); assay type: cell-based; conditions: Homo sapiens, Hep3B, 72 hours
Protocol: 3. Experiment on the Inhibition of Hep 3B Cell Proliferation
In this experiment, the inhibitory effect of the compounds on Hep 3B cell proliferation was tested by a CellTiter-Glo method, and the half maximal inhibitory concentration (IC50) of the compounds on the activity of cell proliferation was determined.
1) A 96-well cell culture plate was seeded with 50˜100 μL of Hep 3B cell suspension at a density of 1-5×10^4 cells/ml. The culture plate was incubated in an incubator for 16-24 hours (37° C., 5% CO2).
as §1
3) 50-100 μL of CellTiter-Glo reagent were added to each well. Then, the culture plate was shaken or left to stand for 5˜30 minutes at room temperature.
as §3, §4
6) The IC50 of the compound was obtained by curve fitting according to the inhibition rates at different concentrations, and the cell activity of the specific example compounds is shown in Table 2.

FGFR1 kinase = FGFR1 kinase (Homo sapiens (Human), UniProt P11362); assay: Enzymologic experiment of FGFR1 (TR-FRET); assay type: biochemical; conditions: TR-FRET kinase activity
Protocol: 2. Enzymologic Experiment of FGFR1
In this experiment, the inhibitory effect of the compounds on FGFR1 kinase activity was tested by a fluorescence resonance energy transfer (TR-FRET) method, and the half maximal inhibitory concentration (IC50) of the compounds on the FGFR1 kinase activity was determined.
1) 1˜5 μL of FGFR1 enzymatic solution was added to a 384-well plate, and the final concentration of the enzyme was 0.1˜5 nM.
2) 1˜5 μL of diluted solution in gradient of the compound was added.
3) 1˜5 μL of a substrate mixture containing substrate polypeptide with a final concentration of 5˜50 nM and ATP with a final concentration of 10˜200 μM was added.
4) The mixture was incubated for 0.5-3 hours at room temperature.
5) 10 μL of EDTA and a test solution comprising labeled antibody were added, and the plate was incubated for 1 hour at room temperature.
6) The fluorescence signal values of each plate were determined by a microplate reader at 665 nm.
7) The inhibition rates were calculated according to the fluorescence signal values.
The IC50 of the compound was obtained by curve fitting according to the inhibition rates at different concentrations, and the enzymatic activity of the specific example compounds is shown in Table 1.

HuH-7 cells = assay: Inhibition of HuH-7 cell proliferation (CellTiter-Glo); assay type: cell-based; conditions: Homo sapiens, 72 hours
Protocol: 4. Experiment on the Inhibition of HuH-7 Cell Proliferation
In this experiment, the inhibitory effect of the compounds on HuH-7 cell proliferation was tested by a CellTiter-Glo method, and the half maximal inhibitory concentration (IC50) of the compounds on the activity of cell proliferation was determined.
1) A 96-well cell culture plate was seeded with 50˜100 μL of HuH-7 cell suspension at a density of 1-5×10^4 cells/ml. The culture plate was incubated in an incubator for 16˜24 hours (37° C., 5% CO2).
as §1, §2, §3, §4
6) The IC50 of the compound was obtained by curve fitting according to the inhibition rates at different concentrations, and the cell activity of the specific Example compounds is shown in Table 2.

[1] = Pharmacokinetic (PK) analysis in rats; assay type: in vivo, Sprague Dawley (SD) rats; conditions: SD rats, single intragastric administration, 5 mg/kg, plasma; for AUC(0-t): read-out: Area Under Curve AUC0-t; for AUC(0-inf): read-out: Area Under Curve AUC0-∞; for half-life: read-out: Half-Time t1/2 (converted); for Cmax: read-out: Plasma Concentration Cmax
Protocol: 6. Pharmacokinetic (PK) Analysis in Rats
Mode of administration: a single intragastric administration.
Formulation: 0.5% CMC and 1% Tween 80, ultrasonic dissolution.
Sampling points: 0.5, 1, 2, 4, 6, 8 and 24 hours after administration.
1. 1.0 ml of intravenous blood was collected and placed in a K2EDTA test tube.
The blood was centrifuged at room temperature at the speed of 1000˜3000×g for 5˜20 minutes to isolate the plasma, which was then stored at −80° C. 2. 160 μL of acetonitrile were added to 40 μL of plasma sample for precipitation, and then the mixture was centrifuged at the speed of 500˜2000×g for 5˜20 minutes. 3. 100 μL of treated solution were taken, and the concentration of the test compound was analyzed by LC/MS/MS. The LC/MS/MS analytical instrument was AB Sciex API 4000.
Liquid Chromatography Analysis:
Condition of Liquid chromatography: Shimadzu LC-20AD pump
Chromatographic column: phenomenex Gemiu 5 um C18 50×4.6 mm
Mobile phase: Solution A is 0.1% aqueous formic acid solution, and solution B is acetonitrile
Elution time: 0-3.5 minutes, the eluent was as follows:
Mass spectrometry analysis:
Mass spectrometer setup conditions: positive ion electrospray ionization (ESI) mode.

FGFR1 kinase, sequence (P11362 22-822): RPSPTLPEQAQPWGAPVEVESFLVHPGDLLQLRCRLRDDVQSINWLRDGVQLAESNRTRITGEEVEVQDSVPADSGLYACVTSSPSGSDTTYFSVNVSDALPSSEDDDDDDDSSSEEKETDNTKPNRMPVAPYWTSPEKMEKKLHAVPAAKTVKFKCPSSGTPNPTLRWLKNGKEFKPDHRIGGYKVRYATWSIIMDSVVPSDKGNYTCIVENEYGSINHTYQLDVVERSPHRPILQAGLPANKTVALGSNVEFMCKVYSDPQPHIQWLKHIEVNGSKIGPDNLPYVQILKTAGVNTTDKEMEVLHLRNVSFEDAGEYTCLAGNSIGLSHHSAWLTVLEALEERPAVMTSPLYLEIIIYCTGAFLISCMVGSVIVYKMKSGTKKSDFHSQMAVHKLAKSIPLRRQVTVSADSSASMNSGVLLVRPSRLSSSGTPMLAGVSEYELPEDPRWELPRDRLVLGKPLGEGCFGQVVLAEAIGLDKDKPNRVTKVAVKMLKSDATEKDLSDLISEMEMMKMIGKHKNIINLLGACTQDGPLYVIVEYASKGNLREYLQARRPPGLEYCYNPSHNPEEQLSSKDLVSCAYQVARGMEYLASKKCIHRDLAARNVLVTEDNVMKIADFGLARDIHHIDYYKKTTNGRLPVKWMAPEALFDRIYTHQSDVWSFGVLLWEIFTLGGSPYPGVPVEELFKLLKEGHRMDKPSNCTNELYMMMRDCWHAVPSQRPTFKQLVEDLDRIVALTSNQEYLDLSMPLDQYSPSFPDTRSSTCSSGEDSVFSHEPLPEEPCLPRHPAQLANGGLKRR

Row | SMILES | IC50 (SK-HEP-1 cells) [nM] | IC50 (Hep 3B cells) [nM] | IC50 (FGFR1 kinase) [nM] | IC50 (HuH-7 cells) [nM] | Peak Time tmax [1] [h] | AUC(0-t) ([1]; Sprague-Dawley, rat, po) [ng·h/mL] | AUC(0-inf) ([1]; Sprague-Dawley, rat, po) [ng·h/mL] | half-life ([1]; Sprague-Dawley, rat, po) [h] | MRT ([1]; Sprague-Dawley, rat, po, read-out: Mean Residence Time MRT) [h] | Cmax ([1]; Sprague-Dawley, rat, po) [ng/mL]
1 | CN(Cc1cc2c(nc1C=O)N(C(=O)Nc1cc(N[C@@H]3CCOC3)c(C#N)cn1)CCC2)C(=O)[C@H]1CCCO1 [Example 95, N-(5-Cyano-4-(((R)-tetrahydrofuran-3-yl)amino)pyridin-2-yl)-7-formyl-6-(((R)—N-methyltetrahydrofuran-2-carboxamido)methyl)-3,4-dihydro-1,8-naphthyridin-1 (2H)-carboxamide] | > 10000 | 2.8 | > 10000 | 12.9 | – | – | – | – | – | –
2 | COCCNc1cc(NC(=O)N2CCCc3cc(CN(C[C@H]4CCCO4)C(C)=O)c(C=O)nc32)ncc1C#N [Example 109, (R)—N-(5-Cyano-4-((2-methoxyethyl)amino)pyridin-2-yl)-7-formyl-6-((N-((tetrahydrofuran-2-yl)methyl)acetamido)methyl)-3,4-dihydro-1,8-naphthyridin-1(2H)-carboxamide] | > 10000 | 6 | > 10000 | 11.1 | – | – | – | – | – | –
3 | COC[C@@H](C)Nc1cc(NC(=O)N2CCCc3cc(CN4CC[C@@H](OC)C4=O)c(C=O)nc32)ncc1C#N [Example 91, N-(5-cyano-4-(((R)-1-methoxypropan-2-yl)amino)pyridin-2-yl)-7-formyl-6-(((R)-3-methoxy-2-carbonylpyrrolidin-1-yl)methyl)-3,4-dihydro-1,8-naphthyridin-1(2H)-carboxamide] | > 10000 | 1.5 | – | 3.3 | 0.5 | 12900 | 13000 | 0.9 | 2.8 | 2790
4 | COCCNc1cc(NC(=O)N2CCCc3cc(CN(C[C@@H]4CCCO4)C(C)=O)c(C=O)nc32)ncc1C#N [Example 111, (S)—N-(5-Cyano-4-((2-methoxyethyl)amino)pyridin-2-yl)-7-formyl-6-((N-((tetrahydrofuran-2-yl)methyl)acetamido)methyl)-3,4-dihydro-1,8-naphthyridin-1(2H)-carboxamide] | > 10000 | 8.3 | > 10000 | 21.5 | – | – | – | – | – | –
5 | COCC(=O)N(C)Cc1cc2c(nc1C=O)N(C(=O)Nc1cc(N3CC[C@H](OC)C3)c(C#N)cn1)CCC2 [Example 106, (S)—N-(5-Cyano-4-(3-methoxypyrrolidin-1-yl)pyridin-2-yl)-7-formyl-6-((2-methoxy-N-methylacetamido)methyl)-3,4-dihydro-1,8-naphthyridin-1(2H)-carboxamide] | > 10000 | 5.8 | > 10000 | 21.1 | – | – | – | – | – | –
6 | CO[C@H]1CCN(c2cc(NC(=O)N3CCCc4cc(CN5CC[C@H](OC)C5=O)c(C=O)nc43)ncc2C#N)C1 [Example 53, N-(5-Cyano-4-((S)-3-methoxypyrrolidin-1-yl)pyridin-2-yl)-7-formyl-6-(((S)-3-methoxy-2-carbonylpyrrolidin-1-yl)methyl)-3,4-dihydro-1,8-naphthyridin-1(2H)-carboxamide] | – | – | > 10000 | – | – | – | – | – | – | –
7 | COC[C@H](C)Nc1cc(NC(=O)N2CCCc3cc(CN(C)C(=O)[C@H]4CCCO4)c(C=O)nc32)ncc1C#N [Example 92, N-(5-Cyano-4-(((S)-1-methoxypropan-2-yl)amino)pyridin-2-yl)-7-formyl-6-(((R)—N-methyltetrahydrofuran-2-carboxamido)methyl)-3,4-dihydro-1,8-naphthyridin-1(2H)-carboxamide] | – | – | > 10000 | – | – | – | – | – | – | –
8 | COCCNc1cc(NC(=O)N2CCCc3cc(CN(C=O)[C@H]4CCOC4)c(C=O)nc32)ncc1C#N [Example 114, (S)—N-(5-Cyano-4-((2-methoxyethyl)amino)pyridin-2-yl)-7-formyl-6-((N-(tetrahydrofuran-3-yl)formylamino)methyl)-3,4-dihydro-1,8-naphthyridin-1(2H)-carboxamide] | > 10000 | 8.6 | – | 26.7 | – | – | – | – | – | –
9 | COC[C@H](C)Nc1cc(NC(=O)N2CCCc3cc(CN4CC[C@H](OC)C4=O)c(C=O)nc32)ncc1C#N [Example 90, N-(5-Cyano-4-(((S)-1-methoxypropan-2-yl)amino)pyridin-2-yl)-7-formyl-6-(((S)-3-methoxy-2-carbonylpyrrolidin-1-yl)methyl)-3,4-dihydro-1,8-naphthyridin-1(2H)-carboxamide] | – | – | > 10000 | – | – | – | – | – | – | –
10 | COCCNc1cc(NC(=O)N2CCCc3cc(CN(C=O)C[C@H]4CCCO4)c(C=O)nc32)ncc1C#N [Example 110, (R)—N-(5-Cyano-4-((2-methoxyethyl)amino)pyridin-2-yl)-7-formyl-6-((N-((tetrahydrofuran-2-yl)methyl)formylamino)methyl)-3,4-dihydro-1,8-naphthyridin-1(2H)-carboxamide] | > 10000 | 8.3 | – | 28.5 | – | – | – | – | – | –
11 | COCCNc1cc(NC(=O)N2CCCc3cc(CN4CCC(OC)C4=O)c(C=O)nc32)ncc1C#N (centres unmarked) [Example 44, N-(5-Cyano-4-((2-methoxyethyl)amino)pyridin-2-yl)-7-formyl-6-((3-methoxy-2-carbonylpyrrolidin-1-yl)methyl)-3,4-dihydro-1,8-naphthyridin-1(2H)-carboxamide] | > 10000 | 6 | – | 6.9 | 2 | 9690 | 9820 | 1 | – | 3010
12 | COCCNc1cc(NC(=O)N2CCCc3cc(CN4CC[C@@H](OC)C4=O)c(C=O)nc32)ncc1C#N [Example 45, (R)—N-(5-Cyano-4-((2-methoxyethyl)amino)pyridin-2-yl)-7-formyl-6-((3-methoxy-2-carbonylpyrrolidin-1-yl)methyl)-3,4-dihydro-1,8-naphthyridin-1(2H)-carboxamide] | > 10000 | 1.9 | – | 8.3 | 2 | 12100 | 12300 | 1.1 | – | 3760
